In patent US8492344B2, “PDK inhibitor compounds and methods of use thereof” (University of Florida Research Foundation, priority 2008, dated 2013):

Experiments:
Solubility in DMSO = assay type: physicochemical
PDH activity = PDH activity in human fibroblast cultures (14CO2 from [1-14C]-pyruvate); assay type: cell-based; settings: for PDH activity stimulation at 0.25 mM: tested at 0.25 mM, data not shown; for Change of PDH activity at 5 mM / Potency relative to DCA in increasing PDH activity: dose-response; for PDH activity vs DMSO control (result in words): initial studies, maximum feasible dose (0.25 to 2 mM), 24 h, 3 cell lines, p≦0.05; for Potency relative to DCA in improving PDH activity at the lowest concentration tested: dose-response 0.01 to 5 mM, lowest concentration printed as 0.01 μM; for Potency relative to DCA in increasing PDH activity: 0.01 mM
Procedure: PDH complex activity was measured by the rate of ^14C formation from [1-^14C]-labeled pyruvate, as described in Mitochondrion 6:126-135 (2006) or Mitochondrion. 7: 253-259 (2007). Fibroblasts harvested by trypsinization from a confluent T-75 flask were washed in phosphate-buffered saline (PBS) and resuspended in PBS containing the serine protease inhibitors leupeptin and phenylmethylsulfonyl fluoride (PMSF). Cells were incubated for 15 min at 37° C. with DCA. Reactions were halted by addition of a stop solution (25 mM NaF, 25 mM EDTA, 4 mM dithiothreitol, 40% ethanol), and cells were lysed by repeated freezing and thawing. Sixteen aliquots of each fibroblast sample were assayed in test tubes for enzyme activity. Four samples that contained only lysate and water and four samples that also contained thiamine pyrophosphate and coenzyme A were assayed at reaction times of 5 and 10 min. A ^14C-labeled pyruvate aliquot of known specific activity was added to the cell lysates and the test tubes were immediately closed with a rubber stopper. The stopper was outfitted with a center well (Kimble-Kontes, Vineland, N.J.) that contained 1 cm^2 chromatography paper soaked with 100 μl hyamine hydroxide. Reactions were halted by adding stopping buffer. The ^14CO2 evolved due to PDH-mediated catalysis and trapped in the paper was determined by liquid scintillation. PDH specific activity was expressed as nmol ^14CO2 produced/min/mg protein. Excess cell lysate was used to determine total protein.
The compounds (predicted to interact with PDK2) were tested in human fibroblast cultures from three healthy subjects for their effect on PDH activity. DCA and dimethyl sulfoxide (DMSO) were used as positive and vehicle controls, respectively. Drugs were dissolved in DMSO and were used at maximum feasible dose in initial studies (0.25 to 2 mM). For dose-response experiments, concentrations used were: 0.01, 0.05, 0.1, 0.5, 1, and 5 mM. DCA was used as positive control. Cells were exposed to media with DCA, NCI compounds or DMSO vehicle for the final 24 h of culture.
Primary cultures of fibroblasts were grown at 37° C. in a humidified 5% CO2/95% air atmosphere in DMEM supplemented with 20% (v/v) FBS, 100 U/mL penicillin, 100 μg/mL streptomycin, and 6 mM L-glutamine.
Cell lysates treated with DCA or NCI compounds were incubated in a reaction buffer that contained [1-^14C]-pyruvate. PDH activity was measured by quantitation of liberated ^14CO2. (Han et al., 2007. Down-regulation of rat pyruvate dehydrogensae E1a gene by self-complementary adeno-associated virus-mediated small interfering RNA delivery. Mitochondrion. 7: 253-259). Each sample was run in triplicate, with appropriate blanks.

Solubility in DMSO (Solubility in DMSO) | Structure (SMILES) | PDH activity stimulation at 0.25 mM (PDH activity) | Change of PDH activity at 5 mM (PDH activity) | PDH activity vs DMSO control (result in words) (PDH activity) | Potency relative to DCA in improving PDH activity at the lowest concentration tested (PDH activity) | Potency relative to DCA in increasing PDH activity (PDH activity)
poorly soluble in DMSO | O=C(O)CS(=O)(=O)O [Compound 5, 2-sulfoacetic acid] | none of these compounds stimulated PDH activity | – | – | – | –
– | C/C(Cl)=C\C(=O)O [Compound 18, (E)-3-chlorobut-2-enoic acid] | – | significant decrease in PDH activity | significantly increased PDH activity | – | –
– | C/C=C\C(=O)O [Compound 24, (Z)-but-2-enoic acid] | – | – | significantly increased PDH activity | – | –
– | CC(O)C(O)C(=O)O (stereo not shown) [Compound 12, 2,3-dihydroxybutanoic acid] | – | – | significantly increased PDH activity | – | –
poorly soluble in DMSO | O=C(O)Cc1nnn[nH]1 [Compound 6, 2-(2H-tetrazol-5-yl)acetic acid] | none of these compounds stimulated PDH activity | – | – | – | –
– | CC(=CC(=O)O)C(=O)O [Compound 10, 2-methylbut-2-enedioic acid] | – | significant decrease in PDH activity | significantly increased PDH activity | may be more potent than DCA | more potent than DCA
poorly soluble in DMSO | O=C(O)C(=O)C(=O)O [Compound 7, 2-oxopropanedioic acid] | none of these compounds stimulated PDH activity | – | – | – | –
– | O=CNCC(=O)O [Compound 25, 2-formamidoacetic acid] | – | – | significantly increased PDH activity | – | –
– | O=C(O)Cc1cnc[nH]1 [Compound 14, 2-(3H-imidazol-4-yl)acetic acid] | – | increased PDH activity | significantly increased PDH activity | may be more potent than DCA | more potent than DCA
